# Active and inactive are the calls of the source. The calls are words filed in the database; no cut-off is given here.
# Key:
# [1] = test system: MDA-MB-468; assay: Inhibition of olaparib-induced autophagic flux in human MDA-MB-468 cells expressing tandem-labelled mCherryEGFP-LC3 chimeric protein at 10 uM measured after 48 hrs by flow cytometry; assay type: functional, cell-based
# [2] = test system: MDA-MB-468; assay: Induction of apoptosis in human MDA-MB-468 cells assessed as necrotic cells at 10 uM measured after 18 hrs in low-glucose, amino acid-free Earles balanced salt solution (EBSS) media by AnnexinV/7-AAD staining based flow cytometric analysis (reference value: 0.1%); assay type: functional
# [3] = test system: MDA-MB-468; assay: Induction of apoptosis in human MDA-MB-468 cells assessed as early apoptotic cells at 10 uM measured after 18 hrs in low-glucose, amino acid-free Earles balanced salt solution (EBSS) media by AnnexinV/7-AAD staining based flow cytometric analysis (reference value: 5.6%); assay type: functional
# [4] = test system: Mus musculus; assay: Decrease in total ATG13 level in liver lysate of C57BL/6J mouse at 10 mg/kg, po measured after 2 hrs by Western blot analysis; assay type: functional, organism-based
# [5] = test system: MDA-MB-468; assay: Induction of apoptosis in human MDA-MB-468 cells assessed as early apoptotic cells at 10 uM measured after 18 hrs in normal growth media by AnnexinV/7-AAD staining based flow cytometric analysis (reference value: 5.6%); assay type: functional
# [6] = test system: Mus musculus; assay: Ex vivo inhibition of ULK1 in liver lysate of C57BL/6J mouse assessed as decrease in pATG13 (Ser318) levels at 10 mg/kg, po measured after 2 hrs by Western blot analysis; assay type: functional, organism-based
# [7] = test system: MDA-MB-468; assay: Induction of apoptosis in human MDA-MB-468 cells assessed as late apoptotic cells at 10 uM measured after 18 hrs in low-glucose, amino acid-free Earles balanced salt solution (EBSS) media by AnnexinV/7-AAD staining based flow cytometric analysis (reference value: 7.6%); assay type: functional
# [8] = Efflux ratio of apparent permeability from basolateral side to apical side over apical side to basolateral side in human Caco2 cells; assay type: ADME, cell-based; settings: Caco-2
# [9] = Inhibition of starvation-induced autophagic flux in human MDA-MB-468 cells expressing tandem-labelled mCherryEGFP-LC3 chimeric protein at 10 uM measured after 18 hrs in EBSS media by flow cytometry (Rvb >90%); assay type: functional
# [10] = target: T1, Serine/threonine-protein kinase ULK1 (Homo sapiens, UniProt O75385); assay: Inhibition of recombinant human ULK1 (1-649) expressed in Sf9 cells using myelin basic protein as substrate by ADP-glo assay; settings: sf9
# T1 sequence (O75385 whole entry): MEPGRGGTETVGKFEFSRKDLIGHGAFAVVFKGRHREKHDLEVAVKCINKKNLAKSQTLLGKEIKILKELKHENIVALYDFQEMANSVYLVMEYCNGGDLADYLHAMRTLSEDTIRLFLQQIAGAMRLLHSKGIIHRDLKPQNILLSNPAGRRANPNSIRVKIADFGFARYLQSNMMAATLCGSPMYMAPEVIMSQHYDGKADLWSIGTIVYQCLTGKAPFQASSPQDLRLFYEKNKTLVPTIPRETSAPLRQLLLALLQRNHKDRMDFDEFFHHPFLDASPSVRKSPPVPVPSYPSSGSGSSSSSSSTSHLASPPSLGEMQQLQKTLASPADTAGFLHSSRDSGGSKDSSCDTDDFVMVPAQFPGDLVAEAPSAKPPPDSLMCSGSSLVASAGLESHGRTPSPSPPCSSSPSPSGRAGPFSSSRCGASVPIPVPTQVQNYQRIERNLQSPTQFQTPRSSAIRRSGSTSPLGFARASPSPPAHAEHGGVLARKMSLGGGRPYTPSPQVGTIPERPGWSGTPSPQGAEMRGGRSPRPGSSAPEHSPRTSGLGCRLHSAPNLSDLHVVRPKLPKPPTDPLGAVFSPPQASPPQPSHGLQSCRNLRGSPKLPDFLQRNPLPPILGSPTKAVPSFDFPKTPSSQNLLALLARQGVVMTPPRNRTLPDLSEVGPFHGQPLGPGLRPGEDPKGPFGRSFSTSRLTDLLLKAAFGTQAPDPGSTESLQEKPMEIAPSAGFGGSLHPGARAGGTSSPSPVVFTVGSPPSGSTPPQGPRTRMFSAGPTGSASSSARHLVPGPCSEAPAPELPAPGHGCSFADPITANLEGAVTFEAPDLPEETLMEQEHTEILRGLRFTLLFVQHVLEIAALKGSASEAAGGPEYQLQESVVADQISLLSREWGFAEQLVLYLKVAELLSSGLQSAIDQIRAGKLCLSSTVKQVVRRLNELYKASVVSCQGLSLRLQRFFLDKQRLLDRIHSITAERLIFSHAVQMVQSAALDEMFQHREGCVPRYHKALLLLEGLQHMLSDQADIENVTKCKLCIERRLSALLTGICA
# [11] = test system: MDA-MB-468; assay: Induction of apoptosis in human MDA-MB-468 cells assessed as viable cells at 10 uM measured after 18 hrs in normal growth media by AnnexinV/7-AAD staining based flow cytometric analysis (reference value: 87.4%); assay type: functional; settings: read-out: Activity
# [12] = test system: Mus musculus; assay: Decrease in ULK1 level in liver lysate of C57BL/6J mouse at 10 mg/kg, po measured after 2 hrs by Western blot analysis; assay type: functional, organism-based
# [13] = target: T2, Serine/threonine-protein kinase ULK1 (Homo sapiens) (UniProt O75385); assay: Binding affinity to recombinant human ULK1 assessed as change in melting temperature at 10 uM by thermal shift assay
# T2 sequence (whole entry): T1 sequence (O75385 whole entry)
# [14] = test system: MDA-MB-468; assay: Induction of apoptosis in human MDA-MB-468 cells assessed as viable cells at 10 uM measured after 18 hrs in low-glucose, amino acid-free Earles balanced salt solution (EBSS) media by AnnexinV/7-AAD staining based flow cytometric analysis (reference value: 86.6%); assay type: functional; settings: read-out: Activity
# [15] = Apparent permeability of the compound across basolateral side to apical side in human Caco2 cells; assay type: ADME, cell-based; settings: Caco-2
structure (smiles),measurement,setting,value
COc1ccc(Nc2ncc(C(F)(F)F)c(NC3CC3)n2)cc1OC,inhibition,[1],Active
same,Activity,[2],0.1%
same,Activity,[3],42.9%
same,inhibition,[4],Active
same,Activity,[5],28.9%
same,inhibition,[6],Active
same,Activity,[7],18.4%
same,efflux ratio,[8],< 2
same,inhibition at 10 µM,[9],60%
same,IC50,[10],13 nM
same,viability at 10 µM,[11],64.1%
same,inhibition,[12],Active
same,ΔTm,[13],8.3 °C
same,viability at 10 µM,[14],38.6%
same,Papp B→A,[15],> 10 ×10⁻⁶ cm/s

# From ChEMBL document CHEMBL4673296 (J Med Chem, 2020)
